Assay results from US20130195886A1, “Methods for Fructanase and Fructokinase Inhibition” (The Regents of the University of Colorado, A Body Corporate, priority 2011, published 2013).

Legend:
[1] = target: T1, KHKC (Homo sapiens, UniProt P50053); assay: KHKC % inhibition of virtual-screen hits; settings: for inhibition at 10 µM: read-out: KHKC % Inhibition (10 µM); for KHKC % Inhibition (10 UM): 10 uM compound
T1 sequence (P50053 1-298): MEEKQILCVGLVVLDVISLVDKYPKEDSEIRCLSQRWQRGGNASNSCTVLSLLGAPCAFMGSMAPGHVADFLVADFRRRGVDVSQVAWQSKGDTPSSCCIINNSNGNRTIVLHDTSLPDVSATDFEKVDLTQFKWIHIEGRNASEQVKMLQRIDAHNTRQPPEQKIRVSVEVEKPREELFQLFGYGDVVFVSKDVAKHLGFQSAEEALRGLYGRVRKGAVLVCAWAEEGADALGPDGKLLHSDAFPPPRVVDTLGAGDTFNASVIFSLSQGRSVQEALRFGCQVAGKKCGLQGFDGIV

[2] = target: T2, KHKA (Homo sapiens, UniProt P50053); assay: KHKA % inhibition of virtual-screen hits; settings: for inhibition at 10 µM: read-out: KHKA % Inhibition (10 µM)
T2 sequence (P50053 1-298 isoform P50053-2): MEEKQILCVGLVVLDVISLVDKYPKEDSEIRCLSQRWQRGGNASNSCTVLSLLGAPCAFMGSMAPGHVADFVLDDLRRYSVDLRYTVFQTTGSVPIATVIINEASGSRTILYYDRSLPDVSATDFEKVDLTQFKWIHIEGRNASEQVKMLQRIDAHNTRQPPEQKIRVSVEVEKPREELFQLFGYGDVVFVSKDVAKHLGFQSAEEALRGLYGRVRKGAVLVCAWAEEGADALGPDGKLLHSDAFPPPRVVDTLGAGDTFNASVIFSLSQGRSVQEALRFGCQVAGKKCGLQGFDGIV

[3] = system: wild type (WT) mice; assay: fructose feeding, duodenum quantitative real time PCR; format: in vivo; settings: 15% fructose water 3 weeks, actin control
Procedure: In the first set of studies, three-month-old male wild type (WT) mice or fructokinase A/C knockout mice (KHK-A/C KO) (obtained from David Bonthron, Leeds, UK)(72) were administered fructose with normal chow for 3 weeks. […] Due to the different preference for fructose water between WT mice and KHK-A/C KO mice, mice were given 15% or 30% of fructose water, respectively. Both WT mice and KHK-A/C KO mice drank the same amount of fructose (FIG. 4A). For each group, the duodenum was removed after 20 hours of fasting of normal chow and the lining scraped and RNA extracted. Quantitative real time PCR was performed for fructokinase C (KHK-C, FIG. 4B), and tight junction genes occludin (FIG. 4C) and ZO-1 (FIG. 4D) using actin as an internal control.

[4] = system: mice; format: in vivo; settings: fructose (30%) vs no fructose, p<0.02 Mann Whitney
[5] = system: human intestinal epithelial cells (CaCo-2); assay: fructose exposure of intestinal epithelial cells, polarity and tight junction expression; format: cell-based
[6] = system: allergy-susceptible mice (lacking the toll-like receptor 4); assay: Experiment 1: peanut food allergy sensitisation and challenge; format: in vivo; settings: fructose 30% in water added to peanuts plus cholera toxin

CSc1nn(-c2ccccc2)c(N)c1C#N [Cpd 2]
KHKC % Inhibition (100 uM) ([1]; 100 uM compound): 16.8%
inhibition at 10 µM [1]: 7.8%
inhibition at 100 µM ([1]; read-out: KHKC % Inhibition (100 uM)): 16.8%
KHKA % Inhibition (100 uM) ([2]; 100 uM compound): 29.4%
inhibition at 10 µM [2]: 5.7%
inhibition at 100 µM ([2]; read-out: KHKA % Inhibition (100 uM)): 29.4%

CSc1nn(-c2ccccc2)cc1-c1nc(-c2ccccc2)cs1 [Cpd 3]
KHKC % Inhibition (10 UM) [1]: 19.9%
inhibition at 10 µM [1]: 19.9%

O=C(CO)[C@@H](O)[C@H](O)[C@H](O)CO [fructose]
KHK mRNA expression [3]: upregulation
ZO-1 mRNA [3]: significant decrease
occludin mRNA [3]: significant decrease
peanut IgE levels [4]: higher
expression of genes involved in the maintenance of cell polarity ([5]; 5 mM fructose): markedly decreased
expression of transmembrane (claudin-4) and scaffolding (ZO-1 and occluding) proteins at the tight junctions ([5]; fructose exposure): substantially down-regulated
localisation of polarity/tight junction proteins (confocal analysis) ([5]; fructose exposure): translocates them intracellularly from the basolateral membrane domain
expression of e-cadherin ([5]; fructose for 96 hours): dramatically down-regulated
fall in temperature, group 3 compared to group 1 [6]: greater fall in temperature
symptoms, group 3 compared to group 1 [6]: numerically worse symptoms

CSc1nn(-c2ccccc2)cc1/C(N)=N/OC(=O)Nc1ccc(OC(F)(F)F)cc1 [Cpd 1]
KHKC % Inhibition (10 UM) [1]: 25.6%
inhibition at 10 µM [1]: 25.6%
KHKA % Inhibition (10 UM) ([2]; 10 uM compound): 7.0%
inhibition at 10 µM [2]: 7%
